Reference: PMC12621043, “Un-LOK-ing a New Approach for Conformational Selective Targeting of STK10 (LOK)” (ACS Medicinal Chemistry Letters, 2025)

What follows are compounds tested against T1, STK10 (Homo sapiens, UniProt O94804) (assay: DSF Tm panel). Details: 10 μM compound.
T1 construct: purchased in-house DSF kinase panel (SGC-style construct names; the trailing letter is the construct ID)
T1 sequence (O94804 18-317 limits assumed): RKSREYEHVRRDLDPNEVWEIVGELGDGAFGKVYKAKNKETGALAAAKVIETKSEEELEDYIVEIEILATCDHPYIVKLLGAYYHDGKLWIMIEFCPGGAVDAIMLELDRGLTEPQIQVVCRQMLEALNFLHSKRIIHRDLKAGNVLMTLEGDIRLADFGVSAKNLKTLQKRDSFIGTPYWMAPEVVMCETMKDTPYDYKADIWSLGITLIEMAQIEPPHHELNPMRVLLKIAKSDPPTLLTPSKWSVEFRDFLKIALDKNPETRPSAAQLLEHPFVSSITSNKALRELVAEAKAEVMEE
Assay type: binding
Compound `Cc1cc(Br)ccc1CNC(=O)Nc1ccc2cc1OCCOCCNc1ccn3ncc-2c3n1` [compound 24] has a ΔTm at 10 µM of 8.3 °C.

The compounds below were run against T2, UKL3A (ULK3A) (Homo sapiens, UniProt Q6PHR2) (assay: DSF Tm panel). Details: 10 μM compound.
T2 construct: purchased in-house DSF kinase panel (SGC-style construct names; the trailing letter is the construct ID)
T2 sequence (Q6PHR2 1-279): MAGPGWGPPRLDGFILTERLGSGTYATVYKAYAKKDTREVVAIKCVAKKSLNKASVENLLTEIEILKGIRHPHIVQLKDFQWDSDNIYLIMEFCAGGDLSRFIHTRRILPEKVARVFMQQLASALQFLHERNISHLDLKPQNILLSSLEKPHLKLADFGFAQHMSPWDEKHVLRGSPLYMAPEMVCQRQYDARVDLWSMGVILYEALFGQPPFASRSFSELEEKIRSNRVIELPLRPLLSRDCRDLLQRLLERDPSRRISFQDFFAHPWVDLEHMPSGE
Assay type: binding
`Cc1cc(Br)ccc1CNC(=O)Nc1ccc2cc1OCCOCCNc1ccn3ncc-2c3n1` [compound 24] showed a ΔTm at 10 µM of 3.7 °C.

Each compound was assayed against T3, CLK1A (Homo sapiens, UniProt P49759) (assay: DSF Tm panel). Details: 10 μM compound.
T3 construct: purchased in-house DSF kinase panel (SGC-style construct names; the trailing letter is the construct ID)
T3 sequence (P49759 148-484): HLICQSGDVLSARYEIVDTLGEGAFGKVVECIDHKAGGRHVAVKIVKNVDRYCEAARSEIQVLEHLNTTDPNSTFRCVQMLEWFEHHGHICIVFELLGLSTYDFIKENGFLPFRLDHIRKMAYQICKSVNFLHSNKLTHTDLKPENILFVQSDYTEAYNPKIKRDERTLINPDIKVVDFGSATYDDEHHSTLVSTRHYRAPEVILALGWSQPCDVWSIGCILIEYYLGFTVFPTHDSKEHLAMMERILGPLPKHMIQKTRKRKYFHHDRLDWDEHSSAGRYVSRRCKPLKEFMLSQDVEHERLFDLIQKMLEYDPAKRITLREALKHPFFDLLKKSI
Assay type: binding
`Cc1cc(Br)ccc1CNC(=O)Nc1ccc2cc1OCCOCCNc1ccn3ncc-2c3n1` [compound 24] gave a ΔTm at 10 µM of 1 °C.

Each compound was assayed against T4, DAPK3 (DAPK3A) (Homo sapiens, UniProt O43293) (assay: DSF Tm panel). Details: 10 μM compound.
T4 construct: purchased in-house DSF kinase panel (SGC-style construct names; the trailing letter is the construct ID)
T4 sequence (O43293 whole entry): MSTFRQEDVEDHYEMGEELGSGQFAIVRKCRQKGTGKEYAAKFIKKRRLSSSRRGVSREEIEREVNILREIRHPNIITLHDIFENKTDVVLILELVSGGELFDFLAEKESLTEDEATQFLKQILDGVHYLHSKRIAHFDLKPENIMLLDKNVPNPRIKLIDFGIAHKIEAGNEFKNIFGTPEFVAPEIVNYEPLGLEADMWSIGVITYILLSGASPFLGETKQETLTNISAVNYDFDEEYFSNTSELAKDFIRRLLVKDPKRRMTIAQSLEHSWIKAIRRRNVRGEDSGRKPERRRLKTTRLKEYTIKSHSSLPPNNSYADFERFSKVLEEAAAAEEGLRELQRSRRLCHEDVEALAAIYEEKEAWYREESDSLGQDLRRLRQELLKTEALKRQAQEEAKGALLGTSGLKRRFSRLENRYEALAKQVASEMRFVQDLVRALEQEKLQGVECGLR
Assay type: binding
`Cc1cc(Br)ccc1CNC(=O)Nc1ccc2cc1OCCOCCNc1ccn3ncc-2c3n1` [compound 24] gave a ΔTm at 10 µM of 0.4 °C.

Each compound was assayed against T5, MAP3K5A (Homo sapiens, UniProt Q99683) (assay: DSF Tm panel). Details: 10 μM compound.
T5 construct: purchased in-house DSF kinase panel (SGC-style construct names; the trailing letter is the construct ID)
T5 sequence (Q99683 659-951): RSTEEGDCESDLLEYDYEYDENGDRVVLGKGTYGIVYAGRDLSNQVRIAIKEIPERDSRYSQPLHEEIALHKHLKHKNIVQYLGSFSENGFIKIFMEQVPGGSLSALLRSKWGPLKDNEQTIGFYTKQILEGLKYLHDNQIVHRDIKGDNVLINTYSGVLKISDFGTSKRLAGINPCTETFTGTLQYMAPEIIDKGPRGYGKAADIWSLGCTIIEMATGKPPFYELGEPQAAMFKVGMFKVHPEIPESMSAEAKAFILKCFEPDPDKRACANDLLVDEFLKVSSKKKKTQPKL
Assay type: binding
Work on `Cc1cc(Br)ccc1CNC(=O)Nc1ccc2cc1OCCOCCNc1ccn3ncc-2c3n1` [compound 24] yielded a ΔTm at 10 µM of 1.4 °C.

The compounds below were run against T6, PCTK1A (Homo sapiens, UniProt Q00536) (assay: DSF Tm panel). Details: 10 μM compound.
T6 construct: purchased in-house DSF kinase panel (SGC-style construct names; the trailing letter is the construct ID)
T6 sequence (Q00536 163-478): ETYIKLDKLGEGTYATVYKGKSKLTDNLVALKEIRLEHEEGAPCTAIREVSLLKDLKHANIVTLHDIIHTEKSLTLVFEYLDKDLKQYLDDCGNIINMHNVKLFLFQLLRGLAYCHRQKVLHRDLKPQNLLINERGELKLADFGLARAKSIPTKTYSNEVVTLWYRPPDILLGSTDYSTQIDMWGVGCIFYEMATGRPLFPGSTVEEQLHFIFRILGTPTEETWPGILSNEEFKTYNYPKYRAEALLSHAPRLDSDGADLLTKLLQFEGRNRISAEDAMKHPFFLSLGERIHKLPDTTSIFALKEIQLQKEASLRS
Assay type: binding
In the case of `Cc1cc(Br)ccc1CNC(=O)Nc1ccc2cc1OCCOCCNc1ccn3ncc-2c3n1` [compound 24], the ΔTm at 10 µM is reported as 0.7 °C.

What follows are compounds tested against T7, MAP2K6A (Homo sapiens, UniProt P52564) (assay: DSF Tm panel). Details: 10 μM compound.
T7 construct: purchased in-house DSF kinase panel (SGC-style construct names; the trailing letter is the construct ID)
T7 sequence (P52564 53-314): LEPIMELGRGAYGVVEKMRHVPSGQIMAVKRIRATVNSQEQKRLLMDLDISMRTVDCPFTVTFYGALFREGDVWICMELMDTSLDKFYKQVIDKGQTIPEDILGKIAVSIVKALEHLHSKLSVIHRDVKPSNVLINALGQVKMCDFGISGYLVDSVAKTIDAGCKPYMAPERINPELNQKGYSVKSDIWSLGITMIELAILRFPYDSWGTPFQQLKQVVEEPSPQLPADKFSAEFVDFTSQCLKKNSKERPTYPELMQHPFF
Assay type: binding
Compound `Cc1cc(Br)ccc1CNC(=O)Nc1ccc2cc1OCCOCCNc1ccn3ncc-2c3n1` [compound 24] has a ΔTm at 10 µM of 0.6 °C.

What follows are compounds tested against T8, CAMK2BA (Homo sapiens, UniProt Q13554) (assay: DSF Tm panel). Details: 10 μM compound.
T8 construct: purchased in-house DSF kinase panel (SGC-style construct names; the trailing letter is the construct ID)
T8 sequence (Q13554 11-303): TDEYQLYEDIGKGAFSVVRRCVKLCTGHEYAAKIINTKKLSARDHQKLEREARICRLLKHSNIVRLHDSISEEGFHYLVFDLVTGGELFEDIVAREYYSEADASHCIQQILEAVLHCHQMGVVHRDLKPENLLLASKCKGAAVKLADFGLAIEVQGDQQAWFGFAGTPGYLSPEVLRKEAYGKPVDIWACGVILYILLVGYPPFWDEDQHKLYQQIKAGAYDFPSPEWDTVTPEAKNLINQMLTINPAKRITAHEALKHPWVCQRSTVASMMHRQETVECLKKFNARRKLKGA
Assay type: binding
`Cc1cc(Br)ccc1CNC(=O)Nc1ccc2cc1OCCOCCNc1ccn3ncc-2c3n1` [compound 24] showed a ΔTm at 10 µM of -0.2 °C.

Each compound was assayed against T9, ABL1 (ABL1A) (Homo sapiens, UniProt P00519) (assay: DSF Tm panel). Details: 10 μM compound.
T9 construct: purchased in-house DSF kinase panel (SGC-style construct names; the trailing letter is the construct ID)
T9 sequence (P00519 229-512): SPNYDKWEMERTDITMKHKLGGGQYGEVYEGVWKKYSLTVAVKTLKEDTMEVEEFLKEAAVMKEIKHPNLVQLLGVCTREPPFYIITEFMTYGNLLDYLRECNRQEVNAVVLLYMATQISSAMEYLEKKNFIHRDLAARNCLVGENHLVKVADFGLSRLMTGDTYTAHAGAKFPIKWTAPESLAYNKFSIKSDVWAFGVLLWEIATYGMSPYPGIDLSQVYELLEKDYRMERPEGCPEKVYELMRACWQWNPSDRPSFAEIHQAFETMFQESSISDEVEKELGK
Assay type: binding
With `Cc1cc(Br)ccc1CNC(=O)Nc1ccc2cc1OCCOCCNc1ccn3ncc-2c3n1` [compound 24] the ΔTm at 10 µM was -0.4 °C.

These compounds were tested against T10, PIM1 (PIM1A) (Homo sapiens, UniProt P11309) (assay: DSF Tm panel). Details: 10 μM compound.
T10 construct: purchased in-house DSF kinase panel (SGC-style construct names; the trailing letter is the construct ID)
T10 sequence (P11309 whole entry): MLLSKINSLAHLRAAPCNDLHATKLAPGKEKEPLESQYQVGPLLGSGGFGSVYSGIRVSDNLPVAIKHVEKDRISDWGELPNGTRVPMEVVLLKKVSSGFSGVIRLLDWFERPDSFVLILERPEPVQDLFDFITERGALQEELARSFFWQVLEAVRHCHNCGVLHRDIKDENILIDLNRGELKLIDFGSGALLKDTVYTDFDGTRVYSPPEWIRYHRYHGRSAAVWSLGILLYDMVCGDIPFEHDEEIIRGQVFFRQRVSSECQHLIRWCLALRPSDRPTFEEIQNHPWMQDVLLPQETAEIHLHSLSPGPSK
Assay type: binding
In the case of `Cc1cc(Br)ccc1CNC(=O)Nc1ccc2cc1OCCOCCNc1ccn3ncc-2c3n1` [compound 24], the ΔTm at 10 µM is reported as 0.5 °C.

These compounds were tested against T11, GPRK5A (Homo sapiens, UniProt P34947) (assay: DSF Tm panel). Details: 10 μM compound.
T11 construct: purchased in-house DSF kinase panel (SGC-style construct names; the trailing letter is the construct ID)
T11 sequence (P34947 186-514): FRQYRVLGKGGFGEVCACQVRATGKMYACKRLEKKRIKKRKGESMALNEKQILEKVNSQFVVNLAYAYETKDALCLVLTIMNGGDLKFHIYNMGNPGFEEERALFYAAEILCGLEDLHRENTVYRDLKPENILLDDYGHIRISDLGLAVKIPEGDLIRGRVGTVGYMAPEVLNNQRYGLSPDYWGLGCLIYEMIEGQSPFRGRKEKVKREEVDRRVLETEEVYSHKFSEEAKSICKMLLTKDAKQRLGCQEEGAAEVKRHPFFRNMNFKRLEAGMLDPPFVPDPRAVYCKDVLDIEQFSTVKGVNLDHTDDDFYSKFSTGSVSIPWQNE
Assay type: binding
`Cc1cc(Br)ccc1CNC(=O)Nc1ccc2cc1OCCOCCNc1ccn3ncc-2c3n1` [compound 24] showed a ΔTm at 10 µM of 0 °C.

The compounds below were run against T12, BRAFA (Homo sapiens, UniProt P15056) (assay: DSF Tm panel). Details: 10 μM compound.
T12 construct: purchased in-house DSF kinase panel (SGC-style construct names; the trailing letter is the construct ID)
T12 sequence (P15056 448-723): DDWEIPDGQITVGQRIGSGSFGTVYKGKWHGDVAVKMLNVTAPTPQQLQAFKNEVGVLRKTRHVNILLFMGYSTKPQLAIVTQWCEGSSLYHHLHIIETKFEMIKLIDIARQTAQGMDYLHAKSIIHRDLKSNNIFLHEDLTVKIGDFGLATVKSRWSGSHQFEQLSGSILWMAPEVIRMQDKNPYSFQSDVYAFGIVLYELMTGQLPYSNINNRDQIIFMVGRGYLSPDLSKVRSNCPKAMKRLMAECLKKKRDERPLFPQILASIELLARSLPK
Assay type: binding
`Cc1cc(Br)ccc1CNC(=O)Nc1ccc2cc1OCCOCCNc1ccn3ncc-2c3n1` [compound 24] was tested, and the ΔTm at 10 µM was -0.3 °C.

Each compound was assayed against T13, CSNK1DA (Homo sapiens, UniProt P48730) (assay: DSF Tm panel). Details: 10 μM compound.
T13 construct: purchased in-house DSF kinase panel (SGC-style construct names; the trailing letter is the construct ID)
T13 sequence (P48730 1-294): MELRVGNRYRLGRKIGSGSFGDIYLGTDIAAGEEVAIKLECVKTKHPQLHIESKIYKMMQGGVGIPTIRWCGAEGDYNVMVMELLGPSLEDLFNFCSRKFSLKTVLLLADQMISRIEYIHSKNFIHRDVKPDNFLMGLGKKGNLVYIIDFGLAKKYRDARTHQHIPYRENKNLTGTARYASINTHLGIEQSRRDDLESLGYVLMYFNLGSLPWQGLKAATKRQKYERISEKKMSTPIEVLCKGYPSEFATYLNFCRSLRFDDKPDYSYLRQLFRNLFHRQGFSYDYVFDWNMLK
Assay type: binding
For `Cc1cc(Br)ccc1CNC(=O)Nc1ccc2cc1OCCOCCNc1ccn3ncc-2c3n1` [compound 24], the ΔTm at 10 µM was 0.2 °C.

The compounds below were run against T14, OSR1A (Homo sapiens, UniProt O95747) (assay: DSF Tm panel). Details: 10 μM compound.
T14 construct: purchased in-house DSF kinase panel (SGC-style construct names; the trailing letter is the construct ID)
T14 sequence (O95747 17-291): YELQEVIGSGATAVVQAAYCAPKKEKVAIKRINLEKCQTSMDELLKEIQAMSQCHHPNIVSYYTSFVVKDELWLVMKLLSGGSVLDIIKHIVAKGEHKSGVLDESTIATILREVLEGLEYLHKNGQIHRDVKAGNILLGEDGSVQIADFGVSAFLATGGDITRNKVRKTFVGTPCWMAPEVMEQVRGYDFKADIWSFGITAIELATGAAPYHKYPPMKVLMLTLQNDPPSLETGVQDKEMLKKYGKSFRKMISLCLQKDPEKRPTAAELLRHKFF
Assay type: binding
With `Cc1cc(Br)ccc1CNC(=O)Nc1ccc2cc1OCCOCCNc1ccn3ncc-2c3n1` [compound 24] the ΔTm at 10 µM was 1.6 °C.

Each compound was assayed against T15, DMPK1A (Homo sapiens, UniProt Q09013) (assay: DSF Tm panel). Details: 10 μM compound.
T15 construct: purchased in-house DSF kinase panel (SGC-style construct names; the trailing letter is the construct ID)
T15 sequence (Q09013 1-629): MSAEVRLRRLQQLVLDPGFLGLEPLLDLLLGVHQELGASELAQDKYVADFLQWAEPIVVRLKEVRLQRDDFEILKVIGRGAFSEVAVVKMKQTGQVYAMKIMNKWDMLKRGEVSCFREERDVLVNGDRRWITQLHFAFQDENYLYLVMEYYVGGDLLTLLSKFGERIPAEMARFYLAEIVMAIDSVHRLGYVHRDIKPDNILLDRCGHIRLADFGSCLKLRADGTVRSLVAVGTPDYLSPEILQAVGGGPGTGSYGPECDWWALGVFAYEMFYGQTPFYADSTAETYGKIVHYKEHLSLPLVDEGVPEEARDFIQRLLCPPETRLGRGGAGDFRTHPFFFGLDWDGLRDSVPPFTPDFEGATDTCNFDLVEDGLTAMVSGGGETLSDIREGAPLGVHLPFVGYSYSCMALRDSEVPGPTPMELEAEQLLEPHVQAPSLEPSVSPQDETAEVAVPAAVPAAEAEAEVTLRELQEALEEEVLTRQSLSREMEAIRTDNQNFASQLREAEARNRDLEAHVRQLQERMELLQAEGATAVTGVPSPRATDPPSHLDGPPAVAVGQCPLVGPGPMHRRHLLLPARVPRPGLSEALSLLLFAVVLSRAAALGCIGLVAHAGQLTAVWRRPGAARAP
Assay type: binding
In the case of `Cc1cc(Br)ccc1CNC(=O)Nc1ccc2cc1OCCOCCNc1ccn3ncc-2c3n1` [compound 24], the ΔTm at 10 µM is reported as 0.3 °C.

What follows are compounds tested against T16, SRPK1A (Homo sapiens, UniProt Q96SB4) (assay: DSF Tm panel). Details: 10 μM compound.
T16 construct: purchased in-house DSF kinase panel (SGC-style construct names; the trailing letter is the construct ID)
T16 sequence (Q96SB4 80-653): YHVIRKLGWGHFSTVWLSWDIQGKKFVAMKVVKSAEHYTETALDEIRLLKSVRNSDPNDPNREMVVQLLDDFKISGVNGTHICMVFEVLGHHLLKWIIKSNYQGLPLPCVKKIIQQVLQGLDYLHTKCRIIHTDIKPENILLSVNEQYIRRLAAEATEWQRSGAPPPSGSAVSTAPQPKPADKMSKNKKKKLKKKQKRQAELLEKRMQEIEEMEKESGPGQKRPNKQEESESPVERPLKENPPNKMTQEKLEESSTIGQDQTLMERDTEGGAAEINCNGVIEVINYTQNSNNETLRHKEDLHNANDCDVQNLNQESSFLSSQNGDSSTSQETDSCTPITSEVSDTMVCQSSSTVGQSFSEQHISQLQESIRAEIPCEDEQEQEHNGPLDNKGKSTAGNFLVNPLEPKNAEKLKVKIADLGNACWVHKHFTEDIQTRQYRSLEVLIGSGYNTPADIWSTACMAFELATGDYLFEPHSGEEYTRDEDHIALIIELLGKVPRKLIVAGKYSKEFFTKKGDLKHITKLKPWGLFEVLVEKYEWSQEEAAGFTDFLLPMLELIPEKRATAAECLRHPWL
Assay type: binding
For `Cc1cc(Br)ccc1CNC(=O)Nc1ccc2cc1OCCOCCNc1ccn3ncc-2c3n1` [compound 24], the ΔTm at 10 µM was -0.2 °C.

Each compound was assayed against T17, AKT3A (Homo sapiens, UniProt Q9Y243) (assay: DSF Tm panel). Details: 10 μM compound.
T17 construct: purchased in-house DSF kinase panel (SGC-style construct names; the trailing letter is the construct ID)
T17 sequence (Q9Y243 148-479): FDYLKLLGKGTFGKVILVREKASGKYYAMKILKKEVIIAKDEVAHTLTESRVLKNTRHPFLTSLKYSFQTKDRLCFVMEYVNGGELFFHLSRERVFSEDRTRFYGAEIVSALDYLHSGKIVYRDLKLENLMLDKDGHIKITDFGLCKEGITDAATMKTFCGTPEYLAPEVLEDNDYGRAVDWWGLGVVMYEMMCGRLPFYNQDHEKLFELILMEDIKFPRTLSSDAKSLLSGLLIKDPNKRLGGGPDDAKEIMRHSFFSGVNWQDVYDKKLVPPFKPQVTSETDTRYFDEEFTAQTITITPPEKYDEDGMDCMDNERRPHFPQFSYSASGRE
Assay type: binding
`Cc1cc(Br)ccc1CNC(=O)Nc1ccc2cc1OCCOCCNc1ccn3ncc-2c3n1` [compound 24] showed a ΔTm at 10 µM of 0.3 °C.

These compounds were tested against T18, MAPK14A (Homo sapiens, UniProt Q16539) (assay: DSF Tm panel). Details: 10 μM compound.
T18 construct: purchased in-house DSF kinase panel (SGC-style construct names; the trailing letter is the construct ID)
T18 sequence (Q16539 whole entry): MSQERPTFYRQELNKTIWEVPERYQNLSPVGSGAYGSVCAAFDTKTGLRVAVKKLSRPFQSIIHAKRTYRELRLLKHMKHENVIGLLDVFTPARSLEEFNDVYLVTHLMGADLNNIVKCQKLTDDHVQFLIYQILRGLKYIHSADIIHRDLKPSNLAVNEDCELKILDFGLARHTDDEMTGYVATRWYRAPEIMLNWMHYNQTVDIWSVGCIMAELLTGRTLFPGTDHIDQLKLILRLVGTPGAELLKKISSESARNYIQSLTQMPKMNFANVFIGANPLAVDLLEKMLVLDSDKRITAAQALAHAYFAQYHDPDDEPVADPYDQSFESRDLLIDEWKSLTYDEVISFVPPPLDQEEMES
Assay type: binding
Compound `Cc1cc(Br)ccc1CNC(=O)Nc1ccc2cc1OCCOCCNc1ccn3ncc-2c3n1` [compound 24] has a ΔTm at 10 µM of 2 °C.
